PubChem BioAssay AID1996
In brackets after ≈: the same amount, converted by molar mass.

Conditions: buffer; pH 7.4; 200.0 µM

Row | SMILES | solubility kinetic
1 | CCS(=O)(=O)c1ccc2c(c1)NC(=O)C(CCO)O2 (stereo unspecified) | 40.4 µg/mL (≈ 142 µM)
2 | NS(=O)(=O)c1ccc(CCNC(=O)c2ccc(Cl)nc2)cc1 | > 51 µg/mL
3 | O=C(c1ccc(F)cc1)C1CCN(C(=O)c2c(F)cccc2F)CC1 | > 52.1 µg/mL
4 | CC(=O)Nc1ccccc1OCC(=O)NC1CCCCC1C (stereo unspecified) | > 45.7 µg/mL
5 | CC(=O)Nc1ccccc1C(=O)N1CCN(c2cccc(C)c2C)CC1 | > 52.7 µg/mL
6 | Cc1ccc(C(=O)O)cc1NC(=O)CSc1nnc(-c2ccccc2F)n1C1CCCCC1 | > 70.3 µg/mL
7 | CN(C)/C=C/c1[nH]c(=O)[nH]c(=O)c1[N+](=O)[O-] | > 33.9 µg/mL
8 | Cc1cccc(NC(=O)c2ccc3c(c2)CCN3S(C)(=O)=O)c1 | 37.5 µg/mL (≈ 113 µM)
9 | COc1ccc(OCC(=O)NCCNC(=O)c2cccnc2)cc1 | 47.8 µg/mL (≈ 145 µM)
10 | Cc1cc(NC(=O)COc2ccc([N+](=O)[O-])cc2)no1 | 5.8 µg/mL (≈ 20.9 µM)
11 | Cc1cc(=O)[nH]c(SCC(=O)Nc2nonc2C)n1 | > 42.2 µg/mL
12 | CCCCNC(=O)c1cc(C)nc2ccccc12 | > 36.3 µg/mL
13 | Cc1onc(-c2c(Cl)cccc2Cl)c1C(O)c1ccccc1 (stereo unspecified) | > 50.1 µg/mL
14 | O=C(NN1CCOCC1)c1ccccc1F | > 33.6 µg/mL
15 | O=C(COc1cccnc1[N+](=O)[O-])NCc1ccccc1 | > 43.1 µg/mL
16 | COc1ccc(C(=O)OCC(=O)N2CCN(C(=O)c3ccco3)CC2)cc1OC | > 60.4 µg/mL
17 | CCN(CC(=O)NCc1ccc(F)cc1)C(=O)c1ccc(C)o1 | > 47.8 µg/mL
18 | Cc1ccccc1-n1c(-c2ccoc2)nc2ccccc2c1=O | > 45.3 µg/mL
19 | CC1(C)CC(NCc2ccncc2)CC(C)(C)N1 | 32.2 µg/mL (≈ 130 µM)
20 | Cc1cc(SCC(=O)c2ccccc2)nc(=O)[nH]1 | 16.7 µg/mL (≈ 64.2 µM)
21 | O=C(c1cc(Br)c[nH]1)N1CCCCC1 | > 38.6 µg/mL
22 | CCOc1ccc(OCCn2c(=S)[nH]c3ccccc32)cc1 | 0.9 µg/mL (≈ 2.86 µM)
23 | CCS(=O)(=O)N1CCC(C(=O)Oc2ccccc2)CC1 | 39.1 µg/mL (≈ 131 µM)
24 | Cc1ccc(S(=O)(=O)Nc2nc3ccccc3nc2N2CCOCC2)cc1 | > 57.7 µg/mL
25 | CN(CC(=O)Nc1ccccc1C(F)(F)F)C(=O)CSc1nnc(-c2ccncc2)n1C | > 69.7 µg/mL

Row | SMILES | solubility kinetic
26 | Cc1ccc(SCc2cn3cc(Cl)ccc3n2)cc1 | 2.9 µg/mL (≈ 10 µM)
27 | Cc1cccc(C(CC(=O)NCc2ccco2)c2ccccc2)c1O (stereo unspecified) | > 50.3 µg/mL
28 | CN(C)CCCNC1=CC(=O)CC(c2ccccc2)C1 (stereo unspecified) | 34.8 µg/mL (≈ 128 µM)
29 | Cc1ccc2[nH]cc(CCNC(=O)c3ccc4c(c3)OCO4)c2c1 | 38.3 µg/mL (≈ 119 µM)
30 | Cc1cc(NC(=O)Cn2cnc3sccc3c2=O)no1 | 7.8 µg/mL (≈ 26.9 µM)
31 | C=CCn1c(C)cc(C(=O)Cn2c(C(C)O)nc3ccccc32)c1C (stereo unspecified) | 29.4 µg/mL (≈ 87.1 µM)
32 | CC(C)(C)NC(=S)NC1CC1 | 25.8 µg/mL (≈ 150 µM)
33 | Cc1ccc(NC(=O)c2ccc3c(c2)OCCO3)cc1C | 25.8 µg/mL (≈ 91.1 µM)
34 | CCN(C(=O)CN1CCCC(C)C1)c1c(N)n(Cc2ccccc2)c(=O)[nH]c1=O (stereo unspecified) | > 59.9 µg/mL
35 | Cc1ccc(-c2noc(COC(=O)c3ccco3)n2)cc1 | 8.8 µg/mL (≈ 31 µM)
36 | Cc1ccc(OCC(=O)Nc2ccccc2C(=O)NC2CC2)cc1C | 0.8 µg/mL (≈ 2.36 µM)
37 | Cc1onc(-c2ccccc2)c1NC(=O)Nc1ccc(OC(F)F)cc1 | 7 µg/mL (≈ 19.5 µM)
38 | Cc1noc(C)c1-c1nc(CS(=O)(=O)c2ccccc2)no1 | 8 µg/mL (≈ 25.1 µM)
39 | Cc1sc(NC(=O)CCC(=O)O)c(C#N)c1C | > 37.8 µg/mL
40 | CCc1cc2c(Nc3ccc(O)cc3)nc(C)nc2s1.Cl | 13.4 µg/mL
41 | O=C(CNS(=O)(=O)c1c(F)cccc1F)NC1CCCc2ccccc21 (stereo unspecified) | > 57.1 µg/mL
42 | CC(c1ccccc1)N1C(=O)OC(C)(C)C1(C)O (stereo unspecified) | > 37.4 µg/mL
43 | CC(=O)c1cnc(Nc2cccc(C)c2)s1 | 13.7 µg/mL (≈ 59 µM)
44 | COc1ccc(C(=O)NCC(=O)OCC(=O)NC2CCCCCC2)cc1 | > 54.4 µg/mL
45 | COC(=O)c1ccc(CN2C(=O)NC3(CCC(C)CC3)C2=O)cc1 (stereo unspecified) | 7.5 µg/mL (≈ 22.7 µM)
46 | CCOC(=O)C1=C(N)Oc2cc(O)ccc2C1c1ccc(C)cc1 (stereo unspecified) | < 0.7 µg/mL
47 | Cc1nc2ccccc2c(=O)n1-c1ccc(Cl)cc1[N+](=O)[O-] | 7.2 µg/mL (≈ 22.8 µM)
48 | Cc1ccc(C2NC(c3ccc(C)cc3)C(C)C(=O)C2C)cc1 (stereo unspecified) | < 0.7 µg/mL
49 | NC(=O)C1CC(=O)N(c2ccc(OCc3ccc([N+](=O)[O-])cc3)cc2)C1 (stereo unspecified) | 20.4 µg/mL (≈ 57.4 µM)
50 | COCc1cc(C)nc(SCC(=O)Oc2ccccc2)c1C#N | 29.1 µg/mL (≈ 88.6 µM)

Row | SMILES | solubility kinetic
51 | Cc1cc(C(=O)N(C)Cc2c(F)cccc2Cl)c2ccccc2n1 | 42.4 µg/mL (≈ 124 µM)
52 | Cc1cccc(NC(=O)Nc2cccc3ccccc23)c1 | < 0.3 µg/mL
53 | COc1cccc2cc(C(=O)NCCc3ccccc3)c(=O)oc12 | < 0.7 µg/mL
54 | COc1ccc(C2(C)NC(=O)NC2=O)cc1OC (stereo unspecified) | > 37.5 µg/mL
55 | FC(F)(F)c1ccccc1-n1c(-c2cnccn2)n[nH]c1=S | > 48.5 µg/mL
56 | CCC1C(=O)C(CC)C(c2ccccc2)NC1c1ccccc1 (stereo unspecified) | 4.3 µg/mL (≈ 14 µM)
57 | COc1ccc(CCNC2=NCCS2)cc1OC | 29.7 µg/mL (≈ 112 µM)
58 | O=C(CCl)c1cc2c3c(c1)CC(=O)N3CCC2 | > 37.5 µg/mL
59 | Cc1cccc(NC(=O)N2C3CCCC2CC(NC(=O)C2CC2)C3)c1 (stereo unspecified) | 22.7 µg/mL (≈ 66.5 µM)
60 | Cc1cc(C(=O)Nc2c(F)cc(F)cc2Br)cs1 | 25.9 µg/mL (≈ 78 µM)
61 | O=S(=O)(Cc1ccccc1)Nc1ccc(F)cc1 | > 39.8 µg/mL
62 | Cc1nc(-c2ccc(C#N)cc2)cs1 | 13.5 µg/mL (≈ 67.4 µM)
63 | N#Cc1ccc(C(=O)NC23CC4CC(CC(C4)C2)C3)cc1 | 0.8 µg/mL (≈ 2.85 µM)
64 | Cn1cccc1-c1nc2ccccc2n1C | > 31.7 µg/mL
65 | Nc1c(C(=O)N2CCOCC2)sc2nc3c(cc12)CCC3 | > 45.5 µg/mL
66 | Cc1cc[n+](Cc2ccc([N+](=O)[O-])cc2)cc1.[Br-] | > 46.4 µg/mL
67 | CSc1ncc(CN2CCN(CCC(C)C)C(CCO)C2)cn1 (stereo unspecified) | 41.7 µg/mL (≈ 123 µM)
68 | O=C(COC(=O)Cc1ccc(F)cc1)NC1CCCCC1 | > 44 µg/mL
69 | CN1CCCC(C(O)(c2ccccc2)c2ccccc2)C1 (stereo unspecified) | 40.8 µg/mL (≈ 145 µM)
70 | CC1CC1C(=O)OCC(=O)Nc1ccc(Cl)cn1 (stereo unspecified) | 27.6 µg/mL (≈ 103 µM)
71 | O=C1NC2=C(C(=O)CCC2)C(c2ccccc2)N1 (stereo unspecified) | > 36.3 µg/mL
72 | CCOC(=O)c1cnc2c(ccc3ccccc32)c1NCCN(C)C | 36.3 µg/mL (≈ 108 µM)
73 | O=C(Cc1c(F)cccc1Cl)OCC(=O)N1CCc2ccccc21 | 9.5 µg/mL (≈ 27.3 µM)
74 | COc1cccc(C(O)Cc2nc3ccccc3n2C)c1OC (stereo unspecified) | > 46.9 µg/mL
75 | CC(C)CCSc1nc2ccccc2[nH]1 | 10.7 µg/mL (≈ 48.6 µM)

Row | SMILES | solubility kinetic
76 | FC(F)(F)c1cccc(NC(=S)N2CCCC2)c1 | > 41.1 µg/mL
77 | O=c1cc(CSc2ccccc2)[nH]c2ccccc12 | 39.7 µg/mL (≈ 148 µM)
78 | Cc1ccc(S(=O)(=O)N2CCOCC2)cc1NC(=O)COC(=O)Cc1ccccc1 | > 64.9 µg/mL
79 | Cc1ccc(NC(=O)COC(=O)[C@@H]2CC(O)CN2S(=O)(=O)c2ccc3c(c2)OCCO3)cc1 (stereo partly specified) | > 71.5 µg/mL
80 | CCc1ccc(S(=O)(=O)Nc2nccs2)cc1 | 27.5 µg/mL (≈ 102 µM)
81 | FC(F)(F)c1ccnc(NCc2ccco2)n1 | 9.2 µg/mL (≈ 37.8 µM)
82 | Cc1ccc2c(c1)c1c3n2CCN(CCC(=O)O)C3CCC1 (stereo unspecified) | > 44.8 µg/mL
83 | COc1ccc2[nH]cc(CCNC(=O)c3ccc([N+](=O)[O-])cc3)c2c1 | 26.3 µg/mL (≈ 77.5 µM)
84 | CC(C)C(O)(C(=O)NNc1ccccc1)C(C)C | > 37.6 µg/mL
85 | COC(=O)c1sccc1NC(=S)Nc1cccc(F)c1 | 34.4 µg/mL (≈ 111 µM)
86 | N#C/C(=C\c1cccc(Oc2ccccc2)c1)C(=O)N1CCOCC1 | 42.5 µg/mL (≈ 127 µM)
87 | CC(C)c1c(O)nc(SCCOc2ccc(Cl)cc2)[nH]c1=O | 44.7 µg/mL (≈ 131 µM)
88 | O=C(CN1CCCC1)Nc1ccccc1C(=O)c1ccccc1 | 44 µg/mL (≈ 143 µM)
89 | CCCC(=O)N1CCC(Cc2ccccc2)CC1 | > 36.8 µg/mL
90 | COc1ccc(NC(=O)C2CC(c3c(F)cccc3Cl)=NO2)cc1 (stereo unspecified) | 40.8 µg/mL (≈ 117 µM)
91 | O=S(=O)(c1ccc2[nH]c3c(c2c1)CCCC3)N1CCCCC1 | 12.3 µg/mL (≈ 38.6 µM)
92 | CCOC(=O)N1CCN(C(=O)c2ccc(OC)cc2)CC1 | > 43.9 µg/mL
93 | COc1cccc(/C=C2\SC(=N)N(c3ccc(F)cc3)C2=O)c1 | 0.5 µg/mL (≈ 1.52 µM)
94 | O=C(CNC(=O)c1ccc2ccccc2c1)NCc1ccccc1F | 7.8 µg/mL (≈ 23.2 µM)
95 | COC(=O)c1ccc(C(=S)N2CCCCC2)cc1 | > 39.5 µg/mL
96 | Cc1cccc(NC(=O)C[n+]2ccc(N(C)C)cc2)c1.[Cl-] | 45.9 µg/mL
97 | O=C(Cn1cccc1C(=O)c1ccccc1)NCc1ccc(Cl)cc1 | 1.1 µg/mL (≈ 3.12 µM)
98 | CNC(=O)CC1C(=O)N(C)C(=S)N1NC(=O)c1ccccc1 (stereo unspecified) | > 48.1 µg/mL
99 | CCOCCn1c(-c2ccccc2)nc2ccccc21 | 39.5 µg/mL (≈ 148 µM)
100 | Cc1cccc(NC(=O)C(Cc2ccccc2)n2cccc2)c1 (stereo unspecified) | 11.6 µg/mL (≈ 38.1 µM)

Row | SMILES | solubility kinetic
101 | Cc1cnc(NC(=O)CN2CCCCC2)s1.[O-][Cl+3]([O-])([O-])O | 24.7 µg/mL
102 | COc1cc(CN2CCSCC2)c([N+](=O)[O-])cc1OC | 35.2 µg/mL (≈ 118 µM)
103 | O=C(/C=C/c1ccco1)Nc1ccc2c(c1)OCCO2 | > 40.7 µg/mL
104 | COc1cccc(NC(=S)NC(=O)Cc2ccccc2)c1 | 16 µg/mL (≈ 53.3 µM)
105 | Cc1cccnc1NC(=O)c1ccc(C(=O)c2ccccc2)cc1 | 42.5 µg/mL (≈ 134 µM)
106 | CN1CCCN(C(=O)c2cc3c(s2)CCCC3)CC1 | 39.7 µg/mL (≈ 143 µM)
107 | c1ccc2[nH]c(-c3ccncc3)nc2c1 | > 29.3 µg/mL
108 | CCOc1ccccc1NC(=O)NC1CCCCCCC1 | 0.4 µg/mL (≈ 1.38 µM)
109 | O=C(Nc1cccc2ncccc12)c1ccco1 | 30.5 µg/mL (≈ 128 µM)
110 | Cc1snc(SCc2cccc(Cl)c2)c1C#N | < 0.3 µg/mL
111 | Cc1cnc(NC(=O)c2ccc3c(c2)OCCO3)s1 | 4.4 µg/mL (≈ 15.9 µM)
112 | CCOC(=O)c1c(N)sc(C(=O)Nc2ccccc2)c1C | 40.7 µg/mL (≈ 134 µM)
113 | CC(=O)Nc1ccc(C2C(=O)c3ccccc3C2=O)cc1 | 39 µg/mL (≈ 140 µM)
114 | Cc1ccccc1OCC(=O)OCC(=O)NCC1CCCCC1 | 7.6 µg/mL (≈ 23.8 µM)
115 | COc1cc(CNc2ccc3[nH]c(=O)[nH]c3c2)ccc1OCC(=O)NC(C)(C)C | 52.3 µg/mL (≈ 131 µM)
116 | CC(C)N(CCc1ccncc1)C(=S)Nc1cccc(Cl)c1 | 43.2 µg/mL (≈ 129 µM)
117 | CN(Cc1cnccn1)Cc1nc(Cc2cccc(F)c2)no1 | 46.3 µg/mL (≈ 148 µM)
118 | O=C(Nc1ccc(-c2cn3c(n2)SCC3)cc1)c1ccco1 | 24.1 µg/mL (≈ 77.4 µM)
119 | O=C1NC2=C(C(=O)CCC2)C(c2ccccc2[N+](=O)[O-])N1 (stereo unspecified) | > 43.1 µg/mL
120 | CCC(C(=O)NCCc1ccccc1)c1ccccc1 (stereo unspecified) | > 40.1 µg/mL
121 | O=C(NC(=S)NC1CCCC1)c1ccccc1 | 16.9 µg/mL (≈ 68 µM)
